The record followed here is patent publication US20040220221A1, “Treatment of degenerative diseases” (priority 2002, published 2004).

This test deals with experimentally induced osteoarthritis. Nature of the test: experimentally induced osteoarthritis in guinea pigs (partial medial meniscectomy), joint histology. It is filed as in vivo, Dunkin Hartley guinea pigs. The settings on record: 1, 3 and 10 mg/kg/day orally by gavage, 10 weeks, operated right hind leg joint, blinded pathologist. On the procedure:
The following description gives evidence on which the invention is based.
Dunkin Hartley guinea pigs(apart from the blank control) were anaesthetised and underwent partial medial meniscectomy in the right hind leg. 3 doses of +mefloquine, (1 mg/kg/day, 3 mg/kg/day and 10 mg/kg/day) were administered orally by gavage to groups of 10 animals as well as a vehicle control. The vehicle was 0.2% methylcellulose and 0.4% Tween 80 in bidistilled water for the mefloquine groups. The administration volume was 2 mL/kg.
The animals were followed for 10 weeks. Terminal blood samples were taken for drug levels. Histology was performed on the joint, which was operated on, and an assessment of the cartilage structure, cell proliferation and loss of proteoglycans was made. The histology was performed by a blinded pathologist.

Each structure is given as a SMILES string.

As for `O[C@H](c1cc(C(F)(F)F)nc2c(C(F)(F)F)cccc12)[C@@H]1CCCCN1` [+mefloquine, (+)-erythro-mefloquine], the “degeneration of cartilage (histology: cartilage structure, cell proliferation, loss of proteoglycans)” value is reported as “prevents the degeneration of cartilage”.
